The record followed here is patent US8022036B2, “Use of thymosin alpha 1 for the treatment of immunological diseases” (Sigma-Tau Industrie Farmaceutiche Riunite S.p.A., priority 2006, dated 2011).

The test system of test [1] is peripheral CD14+ cells (GM-DCs, FL-DCs). Briefly: Human DC generation from peripheral CD14+ cells, surface expression. Format: cell-based. The source says:
(§1) GM-DCs or FL-DCs were obtained from purified CD14+ monocytes from healthy donors or transplanted patients (1 month post-HSCT) cultured in Iscove's modified medium for 7-9 days, in the presence of rGM-CSF (Schering-Plough, Milan, Italy) and rIL-4 (Peprotech, Inalco, Milan, Italy) or FLT3-L (Immunex Corporation, Seattle, Wash.) (Blood. 2004; 103:4232-4239). DC recovery was between 20-30% reduced in cultures from transplanted patients. Murine GM-DCs or FL-DCs were obtained from bone marrow cells for 7-9 days, as described (Blood. 2004; 103:4232-4239). Thymosin alpha 1 and sThymosin alpha 1 were added to the cultures at 20 ng/mL. DCs (>99% CD11c+ consisting of 90-95% CD8-, 5-10% CD8+, and 1-5% B220+ cells) were purified from spleens (spDCs) by magnetic-activated sorting using CD11c MicroBeads and MidiMacs (Miltenyi Biotech). DC populations were further separated into CD8−, CD8+ and B220+ fractions by means of CD8 or B220 MicroBeads (Miltenyi Biotech). DCs were pulsed in serum-free Iscove medium for 24 hours with live unopsonized Aspergillus conidia or Zymosan from Saccharomyces cerevisiae (Sigma) or CpG-ODN 2006 as described.7 Phagocytosis was done as described (Blood. 2004; 103:4232-4239). Photographs were taken using a high Resolution Microscopy Color Camera AxioCam, using the AxioVision Software Rel. 3.1 (Carl Zeiss, Milan, Italy).
(§2) DCs were analyzed for antigen expression with a FACScan flow cytofluorometer (Becton Dickinson, Mountain View, Calif.) equipped with CELLQuest™ software and using conjugated mAbs from PharMingen (Blood. 2004; 103:4232-4239).
(A) Surface expression of CD11c, CD1a and CD123 on DCs derived from peripheral CD14+ cells of different donors with GM-CSF/IL-4 (GM-DCs) or FLT3L (FL-DCs) in the presence of Thymosin alpha 1. Percent of positive cells is indicated.

A short description of test [2]: GVHD in experimental HSCT with donor T cells and DCs. The conditions noted are these: 10^5 donor T cells plus Thymosin alpha 1-treated GM-DCs, uninfected mice. Format: in vivo, mouse. The procedure: Human peripheral blood mononuclear cells were obtained from healthy donors and seven recipients of T-cell depleted haploidentical HSCT, upon written informed consent. Donor typing, engraftment and GVHD were assessed as described (Blood. 2005; 106; 4397-4406). Experimental HSCT model Lethally irradiated (8 Gy) C57BL6 mice were infused with T cell-depleted bone marrow cells from BALB/c mice (Blood. 2003; 102:3807-3814). For GVHD, purified donor CD3+ T splenocytes were added to the graft (Science. 2002; 295:2097-2100). Individual mice were graded weekly from 0-2 for each GVHD criterion (see legend to FIG. 3) without knowledge of treatment group.
Mice were either left uninfected for the assessment of GVHD or infected for the assessment of susceptibility to infection. […]
Resistance to infection was assessed in terms of MST (median survival time in days) and fungal growth in the lung ([…] glucosamine content, bars indicating standard errors) 3 days after infection or at the time of death (A). […] The degree of systemic GVHD was assessed by a scoring system that sums changes in five clinical parameters: weight loss, posture (hunching), activity, fur texture, and skin integrity (maximum index=10). […]

Test [3] concerns bone marrow cells (GM-DCs, FL-DCs). Briefly: Murine DC generation from bone marrow cells, flow cytometry and light microscopy. Format: cell-based, mouse.
Description: as §1, §2
To assess how Thymosin alpha 1 would affect the phenotypic and functional properties of murine DCs, bone marrow cells were grown for 7-9 days in medium containing GM-CSF/IL4 or FLT3L, in the presence of Thymosin alpha 1 or a control, scrambled peptide. After maturation, cells were analyzed by flow cytometry and light microscopy (FIG. 1A).
(A) Surface expression of CD11c, CD 11b and B220 on DCs derived from bone marrow of C57BL6, TLR9−/− or IFN-aβR−/−mice and cultured with GM-CSF/IL-4 (GM-DCs) or FLT3L (FL-DCs) in the presence of Thymosin alpha 1 (+) or the scrambled peptide ( ). Percent of double positive cells is indicated.
A general note: Flow cytometry measures light scatter and fluorescence of single cells or particles in a stream.

[4] abbreviates: GM-CSF/IL-4-treated cultures, healthy donors.

No end group written: not given here.

Regarding “Thymosin alpha 1: naturally occurring thymic peptide; supplied as purified, endotoxin-free sterile lyophilized acetylated polypeptide from SciClone Pharmaceuticals (Ac-SDAAVDTSSEITTKDLKEKKEVVEEAEN; UniProt P06454 2-29, looked up)”, the “mobilization of CD123+ pDCs and CD1a+ DCs in FLT3-L cultures” value in test [1] (FLT3-L cultures) is given as “No such effects were observed”. Besides, in test [1] (setting [4]), the “mobilization of CD1a+DCs” value is recorded as “decreasing that of CD1a+DCs” and the “mobilization of CD123+ pDCs” value is recorded as “promoted the mobilization of CD123+ pDCs”. In addition, the “acceleration of GVHD induction by GM-DCs” value in test [2] is recorded as “totally prevented the effect”. Also, the “B220+CD11c+ cells in FL-DCs” value in test [3] (FLT3L culture, 20 ng/mL) is listed as “not increased”. Further, the “total yield of cells” value in test [3] (GM-CSF/IL-4 culture, 20 ng/mL) is reported as “did not affect total yield of cells”. Further, the “expansion of pDCs in GM-DCs from TLR9-/- or IFN-aβR-/- mice” value in test [3] (GM-DCs from knockout mice) is “not observed”. Also, the “expansion of B220+CD11c+ cells” value in test [3] (Thymosin alpha 1 alone, without GM-CSF/IL-4 or FLT3L) is on record as “not observed”. Further, the “occurrence of pDCs (B220+CD11c+ cells) in GM-DCs” value in test [3] (bone marrow cells, GM-CSF/IL-4, 7-9 days, peptide 20 ng/mL) is on record as “greatly increased the occurrence of pDCs in GM-DCs”.
